From patent publication US10131644B2, “Aryl sultam derivatives as RORc modulators” (Genentech, Inc., priority 2014, dated 2018)

biological target: T1, RORc (Homo sapiens, UniProt P51449); assay: In vitro RORc ligand binding assay (25-[3H]hydroxycholesterol displacement); conditions: IC50, IC50 values for RORc; unit inferred
T1 sequence (P51449 269-508 limits assumed): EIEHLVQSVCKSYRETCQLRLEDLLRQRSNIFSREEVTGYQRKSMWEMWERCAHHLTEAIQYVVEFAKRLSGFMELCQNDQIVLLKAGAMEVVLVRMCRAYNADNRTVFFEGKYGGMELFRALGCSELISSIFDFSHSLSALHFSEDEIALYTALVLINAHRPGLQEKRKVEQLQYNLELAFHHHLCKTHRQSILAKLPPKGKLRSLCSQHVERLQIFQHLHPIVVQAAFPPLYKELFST

Compound	IC50
C[C@H]1CC[C@H](c2ccccc2)S(=O)(=O)N1Cc1ccc(C2(NCCCO)CCOCC2)cc1F [Compound 187, 3-[[4-[3-fluoro-4-[[(3S,6R)-3-methyl-1,1-dioxo-6-phenyl-thiazinan-2-yl]methyl]phenyl]tetrahydropyran-4-yl]amino]propan-1-ol]	74 nM
C[C@H]1CC[C@H](c2ccccc2)S(=O)(=O)N1Cc1ccc(OCC2(CO)CCOCC2)cc1F [Example 3, {4-{3-Fluoro-4-((3S,6R)-3-methyl-1,1-dioxo-6-phenyl-[1,2]thiazinan-2-ylmethyl)-phenoxymethyl]-tetrahydro-pyran-4-yl}-methanol]	82 nM
C[C@H]1CC[C@H](c2ccccc2)S(=O)(=O)N1Cc1cc(F)c(C2(CCC(=O)N(C)C)CC2)cc1F [Compound 147, 3-[1-[2,5-difluoro-4-[[(3S,6R)-3-methyl-1,1-dioxo-6-phenyl-thiazinan-2-yl]methyl]phenyl]cyclopropyl]-N,N-dimethyl-propanamide]	32.5 nM
C[C@H]1CC[C@H](c2ccccc2)S(=O)(=O)N1Cc1ccc(C2(CC#N)CCOCC2)cc1F [Compound 77, 2-[4-[3-fluoro-4-[[(3S,6R)-3-methyl-1,1-dioxo-6-phenyl-thiazinan-2-yl]methyl]phenyl]tetrahydropyran-4-yl]acetonitrile]	31.2 nM
C[C@H]1CC[C@H](c2ccccc2)S(=O)(=O)N1Cc1ccc(C2(CN)CCOCC2)cc1F [Compound 75, [4-[3-fluoro-4-[[(3S,6R)-3-methyl-1,1-dioxo-6-phenyl-thiazinan-2-yl]methyl]phenyl]tetrahydropyran-4-yl]methanamine]	639 nM
C[C@H]1CC[C@H](c2ccccc2)S(=O)(=O)N1Cc1ccc(C2(C(=O)NCC(C)(C)O)CCOCC2)cc1F [Compound 62, 4-[3-fluoro-4-[[(3S,6R)-3-methyl-1,1-dioxo-6-phenyl-thiazinan-2-yl]methyl]phenyl]-N-(2-hydroxy-2-methyl-propyl)tetrahydropyran-4-carboxamide]	149 nM
C[C@H]1CCC(c2ccccc2)S(=O)(=O)N1Cc1ccc(C2(C(=O)O)CCOCC2)cc1 (stereo partly drawn) [Compound 29, 4-[4-((S)-3-Methyl-1,1-dioxo-6-phenyl-[1,2]thiazinan-2-ylmethyl)-phenyl]-tetrahydro-pyran-4-carboxylic acid]	4400 nM
CC(=O)N1CCC(OCC(O)CO)(c2cc(F)c(CN3[C@@H](C)CC[C@H](c4ccccc4)S3(=O)=O)cc2F)CC1 (stereo partly drawn) [Compound 144, 1-[4-[2,5-difluoro-4-[[(3S,6R)-3-methyl-1,1-dioxo-6-phenyl-thiazinan-2-yl]methyl]phenyl]-4-(2,3-dihydroxypropoxy)-1-piperidyl]ethanone]	21.6 nM
C[C@H]1CC[C@H](c2ccccc2)S(=O)(=O)N1Cc1ccc([C@]2(C(N)=O)CC[C@@H](n3cnnc3)CC2)cc1F [Compound 25, 1-[3-Fluoro-4-((3S,6R)-3-methyl-1,1-dioxo-6-phenyl-[1,2]thiazinan-2-ylmethyl)-phenyl]-4-[1,2,4]triazol-4-yl-cyclohexanecarboxylic acid amide]	22 nM
C[C@H]1CC[C@@H](c2ccccc2)S(=O)(=O)N1Cc1ccc(C2(C(=O)O)CCOCC2)cc1F [Compound 45, 4-[3-Fluoro-4-((3S,6S)-3-methyl-1,1-dioxo-6-phenyl-[1,2]thiazinan-2-ylmethyl)-phenyl]-tetrahydro-pyran-4-carboxylic acid]	6100 nM
C[C@H]1CC[C@H](c2ccccc2)S(=O)(=O)N1Cc1ccc(C2(CCC(=O)N(C)C)CCOCC2)cc1F [Compound 85, 3-[4-[3-fluoro-4-[[(3S,6R)-3-methyl-1,1-dioxo-6-phenyl-thiazinan-2-yl]methyl]phenyl]tetrahydropyran-4-yl]-N,N-dimethyl-propanamide]	10.5 nM
C[C@H]1CC[C@H](c2ccccc2)S(=O)(=O)N1Cc1ccc(C2(C(=O)NCCCO)CCOCC2)cc1F [Compound 54, 4-[3-fluoro-4-[[(3S,6R)-3-methyl-1,1-dioxo-6-phenyl-thiazinan-2-yl]methyl]phenyl]-N-(3-hydroxypropyl)tetrahydropyran-4-carboxamide]	79.8 nM
